Source: a melting point compilation (Tetko et al.; mined from patent text by program, amines drawn as free bases though some values may be those of a salt)

First: Oc1ccc2c(c1)C[C@@H](NC[C@H](O)c1ccc(OCc3ccccc3)c(CCOCc3ccccc3)c1)CC2
Second: CCC(=Cc1cn(CC(=O)N(C)CCc2ccccc2)c2cccc(OCc3ccccc3)c12)C(=O)O
The melting point of the first is lower: 147 to 150 °C for the first, 170 to 174 °C for the second.

Compared with COc1cc(NC(=O)c2ccco2)ccc1S(=O)(=O)N1C(=O)C(c2ccccc2Cl)(N(C)C)c2cc(Cl)ccc21 (configuration not stated), CN(C)S(=O)(=O)Nc1ccc(C(=O)Nc2ccccc2)cc1 is lower in melting point: 255 °C for the first, 213 to 215 °C for the second.

Compared with O[C@@H]1CN(C2CCCCC2)C[C@@H]1NCc1ccccc1 (relative stereo), CC(=O)Nc1nc2c(s1)CCN(C(=O)OCc1ccccc1)CC2 is higher in melting point: 108 to 110 °C for the first, 126 to 128 °C for the second.

Compared with CCOC(=O)C1N=c2ccsc2=CN1N (configuration not stated), CCOC(=O)C(=NOC1CCCCC1)c1csc(N)n1 is lower in melting point: 139 to 141 °C for the first, 125 to 126 °C for the second.

First: COc1cc(OC)nc(Sc2nccc(-c3ccc(Cl)cc3)c2C(=O)O)n1
Second: Clc1ccc(-c2cc(-c3cccs3)[nH]n2)cc1
The melting point of the first is higher: 219 to 223 °C for the first, 217 °C for the second.

Compared with Cc1cccc(CC(=O)O)c1OCc1nc(OC(C)C)c(C(=O)NCc2ccc(Cl)cc2Cl)s1, COC(=O)CCc1cn(Cc2ccc(C(=O)O)cc2OC)c2cc(C(=O)NCC3CCCC3)ccc12 is higher in melting point: 125 to 126 °C for the first, 181 to 182 °C for the second.

First: COc1nc(N)c2ncn(C3OC(CO)C(O)C3O)c2n1 (configuration not stated)
Second: COc1ccc(-c2nn(-c3ccc(C)cc3)c3ncccc23)cc1
The melting point of the first is higher: 191 to 192 °C for the first, 143 to 145 °C for the second.

First: CC(C)=CCc1c(C)c(C)c(O)c(C)c1C
Second: CCN(CC)CC(O)c1cccc2c(C)c(C)oc12 (configuration not stated)
The melting point of the first is lower: 105 to 106 °C for the first, 138 to 142 °C for the second.

First: CC(C)(C)OC(=O)N1CCCC(CCN2C(=O)C3(COc4cc5c(cc43)OCO5)c3ccccc32)C1 (configuration not stated)
Second: COc1cc(CC(=O)Nc2ccc(C3(CC(=O)O)CCCC3)cc2)ccc1NC(=O)Nc1ccccc1C
The melting point of the first is lower: 64 to 67 °C for the first, 223 to 226 °C for the second.

First: O=C1NC(=O)C(c2cn3c4c(cccc24)CCC3)C1c1cccc(O)c1 (configuration not stated)
Second: O=C1NCCN1Cc1cccc2ccccc12
The melting point of the first is lower: 108 to 110 °C for the first, 121 to 125 °C for the second.

First: O=C(OC(Cc1c[nH]cn1)C(=O)O)C(Cc1ccccc1)Cc1ccccc1 (configuration not stated)
Second: O=c1c2cnc(-c3ccccc3)nc2sn1CCc1ccccc1
The melting point of the first is higher: 210 °C for the first, 144 to 147 °C for the second.

First: CC=CC(=O)Nc1ccc(-c2ccncc2)cc1
Second: CC(=O)Nc1ccc(-c2ccc3nnn(Cc4ccc5ncccc5c4)c3n2)cc1
The melting point of the first is higher: 247 to 249 °C for the first, 220 to 223 °C for the second.

First: CC(C)(C)OC(=O)N(CCc1ccc(C(F)(F)F)cc1)C1CCN(C[C@@]2(C)Cn3cc([N+](=O)[O-])nc3O2)CC1
Second: CC(=O)NCC1CN(c2ccc(N3CCN(c4ccc([N+](=O)[O-])s4)CC3)c(F)c2)C(=O)O1 (configuration not stated)
The melting point of the first is higher: 207 to 209 °C for the first, 171 to 174 °C for the second.

Compared with CCc1cc(OCc2nc3ccccc3o2)c(=O)[nH]c1C, COc1cc2c(cc1Cl)NC(=O)c1ccccc1S2 is higher in melting point: 198 to 200 °C for the first, 280 to 283 °C for the second.

First: O=C1NCCN1c1cccc(Cl)c1
Second: NC1=CC(=O)CC(c2c(Cl)cccc2Cl)C1 (configuration not stated)
The melting point of the first is lower: 121 to 123 °C for the first, 216 to 217 °C for the second.

First: Cn1c(=O)oc2c(O)cccc21
Second: CC(=O)/C=C/c1ncn2c1CN(C)C(=O)c1c(Cl)cccc1-2
The melting point of the first is lower: 209 to 211 °C for the first, 235 to 237 °C for the second.

First: Cc1cc2c(s1)SCCNC2=O
Second: CCN1c2ncc(CO)cc2C(=O)N(C)c2ccc(Cl)nc21
The melting point of the first is lower: 155 to 156 °C for the first, 166 to 168 °C for the second.

First: CCCCOc1ccc(S(C)(=O)=O)cc1C(N)=O
Second: COc1cc2c(c(Cl)c1Cl)C(=O)C(CCOC(C)=O)=C2
The melting point of the first is higher: 146 to 150 °C for the first, 134 to 136 °C for the second.

First: CCCCc1oc2cc(Br)ccc2c1CC1(c2ccc(OC)cc2)OCN=C1Br (configuration not stated)
Second: COc1cc2c(Nc3ccc(Oc4cccnc4)cc3)c(C#N)cnc2cc1F
The melting point of the first is lower: 93 to 95 °C for the first, 235 to 236 °C for the second.

First: COC1=C(c2ccccc2CSc2nc3ccccc3s2)C(=O)OC1
Second: CN1C(=O)c2cscc2N(C(=O)Cc2ccccc2)c2ccccc21
The melting point of the first is lower: 81 to 82 °C for the first, 210 to 212 °C for the second.

First: NS(=O)(=O)c1cccc(-c2cn(-c3nc(-c4ccc(F)c(F)c4)cc(C(F)(F)F)n3)cn2)c1
Second: O=c1c2cc(F)c(Cl)nc2n(-c2cccc(C(F)(F)F)c2)c(=O)n1OCc1ccccc1
The melting point of the first is higher: 242 °C for the first, 207 to 208 °C for the second.

Compared with C=C(Cc1ccc(-c2cccc3cncn23)cc1)C(=O)O, OCCOc1ccc(Cn2ccnc2)cc1 is lower in melting point: 171 to 172 °C for the first, 81 to 82 °C for the second.

Compared with CS(=O)(=O)Nc1cc([C@@H](O)CNC2CCN(c3ccc(/C=C/C(=O)O)cc3)CC2)ccc1O, O=C(O)C1CCN(c2ncc(NS(=O)(=O)C(F)(F)F)c(NCc3ccccc3)n2)CC1 is lower in melting point: 220 °C for the first, 160 °C for the second.

First: N=c1sc2cc(OC(F)(F)F)ccc2n1CCS(=O)c1ccccc1 (racemic)
Second: CN1C(=O)C(=O)c2cc(S(=O)(=O)N3CCC[C@H]3COc3ccccc3)ccc21
The melting point of the first is higher: 210 °C for the first, 160 to 161 °C for the second.

First: O=C1NCCN(C(c2ccccc2)(c2ccccc2)c2ccccc2)C1=O
Second: COC(=O)C(c1ccccc1)(c1ncc[nH]1)c1ccccc1C (configuration not stated)
The melting point of the first is higher: 230 to 235 °C for the first, 148 °C for the second.

Compared with CN1C[C@@H]2c3ccccc3Oc3ccc(Cl)cc3[C@H]2C1=O (relative stereo), O=C1NC(=O)c2c1c(-c1ccccc1Cl)cc1[nH]c3ccc(C(O)CO)cc3c21 (configuration not stated) is higher in melting point: 151 °C for the first, 265 to 268 °C for the second.

First: COC(=O)C1=C(C(F)F)NC(C)=C(C(=O)OC(C)C)C1c1cccc([N+](=O)[O-])c1 (configuration not stated)
Second: CCCCC(=O)NC1(c2ccc(C(C)C)cc2OC(=O)CCCC)C(=O)c2ccccc2C1=O
The melting point of the first is higher: 140 to 141 °C for the first, 117 to 118 °C for the second.

First: COC1(C(C)=O)CCC2C3CCC4=CC(=O)CCC4(C)C3CCC21C (configuration not stated)
Second: COc1ccc(/C(=C/C=C/C(=O)O)C2CCCCC2)cc1
The melting point of the first is higher: 196 to 197 °C for the first, 130 to 132 °C for the second.

First: CN1CCN(c2n[nH]c3ccc(Cl)cc23)CC1
Second: Cc1nn(C)c(Cl)c1S(=O)(=O)N1CCC2(CC1)CSC1=C(O2)c2ccccc2C(=O)C1=O
The melting point of the first is lower: 172 to 174 °C for the first, 247 to 249 °C for the second.

Compared with Nc1ncnc2c1c(-c1ccc(Oc3ccccc3)cc1)c(Br)n2C1CCOC1 (configuration not stated), Cc1nnc(-c2ccc3occ(-c4cccc(F)c4)c3c2)o1 is lower in melting point: 205 to 206 °C for the first, 138 to 139 °C for the second.

Compared with CCN1C(Cl)=NC(OC)=NS1(=O)=O, CCOC(=O)c1cnc2nc(C)ccc2c1OCC is higher in melting point: 63 to 70 °C for the first, 82 to 83 °C for the second.

First: O=C(O)c1cc2ccccc2n1Cc1cc([N+](=O)[O-])cc2[nH]c(=O)c(=O)[nH]c12
Second: Cc1c(C(=O)Nc2cccc(C#N)c2N2CCC(N3CCOCC3)CC2)cnn1-c1ccc([N+](=O)[O-])cc1
The melting point of the first is higher: over 300 °C for the first, 265 °C for the second.

First: CCc1nn(C2CCCC2)c2cc(C(=O)NCC(=O)O)ccc12
Second: CCCn1cc2c(C3C(=O)Nc4ccc(Br)cc43)ncnc2n1 (configuration not stated)
The melting point of the first is lower: 182 to 184 °C for the first, over 300 °C for the second.

First: CNC(=O)c1ncn(-c2cc3c(=O)n(NS(C)(=O)=O)c(=O)[nH]c3cc2C(F)(F)F)n1
Second: COc1ccc2c(c1)Sc1c(ccc(OC)c1C=O)N2C
The melting point of the first is higher: 257 to 260 °C for the first, 150 °C for the second.

First: c1ccc2c(c1)OCCO2
Second: Nc1ccncc1-c1n[nH]c2ccccc12
The melting point of the first is lower: 117 to 118 °C for the first, 237 to 239 °C for the second.

First: c1coc(-c2nc3nsnc3nc2-c2ccncn2)c1
Second: O=[N+]([O-])C1=C2N(Cc3cnc(Cl)s3)CCN2C2CCC1O2 (configuration not stated)
The melting point of the first is higher: 233 to 235 °C for the first, 152 °C for the second.
